We go through 18 molecules from patent US5244905A, “N-substituted cycloalkyl and polycycloalkyl polyhydro-β-carboline-phenylalanine- and phenethylamine derivatives” (Warner-Lambert Company, priority 1991, dated 1993).

The target in experiment [1] is T1, Central CCK Receptors (Mus musculus, UniProt P56481).
T1 construct: from tissue; host or cells: cerebral cortex of male CFLP mice (washed membranes)
T1 sequence (P56481 1-453): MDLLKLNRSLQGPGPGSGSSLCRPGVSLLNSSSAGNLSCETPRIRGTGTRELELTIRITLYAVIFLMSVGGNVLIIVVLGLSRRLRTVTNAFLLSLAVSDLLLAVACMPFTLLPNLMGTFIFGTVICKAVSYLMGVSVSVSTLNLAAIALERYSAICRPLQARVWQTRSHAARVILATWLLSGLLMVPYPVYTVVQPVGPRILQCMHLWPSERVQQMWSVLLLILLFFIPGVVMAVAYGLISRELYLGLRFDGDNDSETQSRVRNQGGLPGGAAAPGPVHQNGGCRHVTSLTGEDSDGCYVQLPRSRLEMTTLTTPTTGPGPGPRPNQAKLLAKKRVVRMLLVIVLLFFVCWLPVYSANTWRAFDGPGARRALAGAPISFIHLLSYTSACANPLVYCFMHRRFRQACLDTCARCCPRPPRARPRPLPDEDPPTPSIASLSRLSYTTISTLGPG
As to the kind of experiment: Binding to central CCK receptors ([3H]-pentagastrin displacement, mouse cerebral cortical membranes). Further details: species or system mouse (male CFLP). The conditions noted are these: tritiated pentagastrin 2 nM, number of assays (n) = 2. The protocol: (§1) The biological activity of compounds of the present invention was evaluated employing an initial screening test which rapidly and accurately measured the binding of the tested compound to known CCK receptor sites. […] (See Hays et al, Neuropeptides 1:53-62, 1980; and Satuer et al, Science, 208:1155-1156, 1980.
(§2) In this screening test, the cerebral cortices taken from male CFLP mice weighing between 30-40 g were dissected on ice, weighed, and homogenized in 10 volumes of 50 mM Tris-HCl buffer (pH 7.4 at 0°-4° C.). The resulting suspension was centrifuged, the supernate was discarded, and the pellet was washed by resuspension in Tris-HCl buffer followed by recentrifugation. The final pellet was resuspended in 20 volumes of […] Hepes buffer (pH 7.2 at 23° C.) containing 130 mM NaCl, […] KCl, […] MgCl2, […] EDTA, 5 mg/mL bovine albumin, and bacitracin (0.25 mg/mL).
(§3) In saturation studies, cerebral cortical membranes were incubated at 23° C. for 120 minutes in a final volume of 500 μliter of Hepes incubation buffer (pH 7.2) together with 0.2-20 nM tritiated-pentagastrin (Amersham International, England).
(§4) In the displacement experiments, membranes were incubated with a single concentration (2 nM) of ligand, together with increasing concentrations ([…]) of competitive test compound. In each case, the nonspecific binding was defined as that persisting in the presence of the unlabeled octapeptide CCK26-33 (10^-6 M).
(§5) Following incubation, radioactivity bound to membranes was separated from that free in solution by rapid filtration through Whatman GF/B filters and washed three times with 4 mL of ice cold Tris-HCl buffer. Filters from samples incubated with tritiated-pentagastrin were placed in polyethylene vials with 4 mL of scintillation cocktail, and the radioactivity was estimated by liquid scintillation spectrometry (efficiency 47% to 52%).
(§6) The specific binding to CCK receptor sites was defined as the total bound tritiated-pentagastrin minus the amount of tritiated-pentagastrin bound in the presence of 10^-6 octapeptide, CCK26-33.
(§7) Saturation curves for specific tritiated-pentagastrin binding to mouse cortical membranes were analyzed by the methods of Scatchard (Ann. New York Acad. Sci. 51:660 672, 1949, and Hill (J. Physiol. 40:IV-VIII, 1910, to provide estimates for the maximum number of binding sites (Bmax) and the equilibrium dissociation constant ([…]).
(§8) In displacement experiments, inhibition curves were analyzed by either logit-log plots or the iterative curve fitting computer program ALLFIT (DeLean, Munson and Redbard, 1978) to provide estimates of the IC50 and nH (apparent Hill coefficient) values). (IC50 values were defined as the concentration of test compound required to produce 50% inhibition of specific binding.)
(§9) The inhibition constant (Ki) of the test compound was then calculated according to the Cheng-Prusoff equation: [formula] where [L] is the concentration of radiolabel and Ka is the equilibrium dissociation constant.
The Ki values for several representative compounds of the present invention are present in Table II.

Experiment [2] concerns the target T2, CCK-B receptor (Mus musculus, UniProt P56481).
T2 construct: from tissue
T2 sequence (P56481 1-453): T1 sequence (P56481 1-453)
Description: Binding to the CCK-B receptor (Table III). Also on record: species or system mouse (male CFLP). The protocol: as §1, §2, §3, §4, §5, §6, §7, §8, §9

SMILES strings stand for the structures.

By Ki is commonly meant a measure of affinity in units of concentration, obtained from inhibition or displacement. `CC1(C(=O)N[C@H](CO)Cc2ccccc2)Cc2c([nH]c3ccccc23)CN1C(=O)OC1C2CC3CC(C2)CC1C3` (mixture of isomers) [Example 4, 1,3,4,9-Tetrahydro-3-[[[1-(hydroxymethyl)-2-phenylethyl]amino]carbonyl]-3-methyl-2H-pyrido[3,4-b]indole-2-carboxylic acid,tricyclo[3.3.1.1^3,7]dec-2-yl ester (mixture of diastereomers)]: the Ki in experiment [1] and in experiment [2] was 500 nM each time.

For the molecule `CC1(C(=O)NCC(N)c2ccccc2)Cc2c([nH]c3ccccc23)CN1C(=O)OC1C2CC3CC(C2)CC1C3` (mixture of isomers) [Example 8, 3-[[(2-Amino-2-phenylethyl)amino]carbonyl]-1,3,4,9-tetrahydro-3-methyl]-2H-pyrido[3,4-b]indole-2-carboxylic acid, tricyclo[3.3.1.1^3,7]dec-2-yl ester, (mixtures of diastereomers)], the Ki in experiment [1] and in experiment [2] was 3000 nM throughout.

As for `CC1(C(=O)NCC(NC(=O)CCC(=O)OCc2ccccc2)c2ccccc2)Cc2c([nH]c3ccccc23)CN1C(=O)OC1C2CC3CC(C2)CC1C3` (mixture of isomers) [Example 11, 3-[3-[3-[2-[2-[1,4-Dioxo-4-(phenylmethoxy)butyl]amino]-2-phenylethyl]amino]carbonyl]-1,3,4,9-tetrahydro-3-methyl]-2H-pyrido[3,4-b]indole-2-carboxylic acid, tricyclo[3.3.1.1^3.7]dec-2-yl ester (mixture of diastereomers)], the Ki in experiment [1] and in experiment [2] was 3000 nM each time.

For `CC1(C(=O)NCC(NC(=O)CC(=O)O)c2ccccc2)Cc2c([nH]c3ccccc23)CN1C(=O)OC1C2CC3CC(C2)CC1C3` (mixture of isomers) [Example 14, 3-[[[2-[(3-Carboxyacetyl)amino]-2-phenethyl]-amino]-carbonyl]-1,3,4,9-tetrahydro-3-methyl-2H-pyrido[3,4-b]indole-2-carboxylic acid, [tricyclo-[3.3.1.1^3,7]dec-2-yl ester (mixture of diastereomers)], the Ki in experiment [1] and in experiment [2] was 1000 nM each time.

Regarding `CC1(C(=O)NCC(NC(=O)/C=C\C(=O)O)c2ccccc2)Cc2c([nH]c3ccccc23)CN1C(=O)OC1C2CC3CC(C2)CC1C3` (mixture of isomers) [Example 15, 3-[[[2-[(3-Carboxy-1-oxo-2-propenyl)amino]-b 2-phenethyl]amino]carbonyl]1,3,4,9-tetrahydro-3-methyl-2H-pyrido[3,4-b]indole-2-carboxylic acid, [tricyclo-[3.3.1.1^3.7]dec-2-yl ester (mixture of diastereomers)], the Ki in experiment [1] and in experiment [2] was 710 nM in each case.

`CC1(C(=O)N[C@H](CNC(=O)CCC(=O)O)Cc2ccccc2)Cc2c([nH]c3ccccc23)CN1C(=O)OC1C2CC3CC(C2)CC1C3` (mixture of isomers) [Example 16, 3-[[1-(3-Carboxy-1-oxopropyl)amino]methyl]-1-phenethyl]amino]carbonyl]-1,3,4,9-tetrahydro-3-methyl2H-pyrido[3,4-b]indole-2-carboxylic acid, [tricyclo-[3.3.1.1^3,7]dec-2 yl ester (mixture of diastereomers)]: the Ki in experiment [1] and in experiment [2] was 305 nM throughout.

Take `CC1(C(=O)NCCc2ccccc2)Cc2c([nH]c3ccccc23)CN1C(=O)OC1C2CC3CC(C2)CC1C3` (racemic) [Example 1, (±)1,3,4,9-Tetrahydro-3-methyl-3-[[2-phenylethyl)amino]carbonyl]-2H-pyrido[3,4-b]indole-2-carboxylic acid,tricyclo[3.3.1.1^3,7]dec-2-yl ester]: the Ki in experiment [1] and in experiment [2] was 150 nM in each case.

As for `O=C(NCCc1ccccc1)C1Cc2c([nH]c3ccccc23)CN1C(=O)OC1C2CC3CC(C2)CC1C3` (racemic) [Example 17], the Ki in experiment [1] and in experiment [2] was 990 nM each time.

Turning to `CC1(C(=O)NCCc2ccccc2)Cc2c([nH]c3ccccc23)CN1S(=O)(=O)NC1C2CC3CC(C2)CC1C3` (racemic) [Example 19, (+/-)-1,3,4,9-Tetrahydro-3-methyl-N-(2-phenylethyl)-2-(tricyclo[(3.3.1.1^3,7]dec-2-ylamino]sulfonyl]1H-pyrido-[3,4-b]indole-3-carboxamide], the “Ki CCK-B” value in experiment [2] is on record as “iA”.

Take `C[C@]1(C(=O)NCCc2ccccc2)Cc2c([nH]c3ccccc23)CN1C(=O)OC1C2CC3CC(C2)CC1C3` (stereo partly shown) [Example 2]: the Ki in experiment [1] and in experiment [2] was 600 nM in each case.

For `C[C@@]1(C(=O)NCCc2ccccc2)Cc2c([nH]c3ccccc23)CN1C(=O)OC1C2CC3CC(C2)CC1C3` (stereo partly shown) [Example 3], the “Ki CCK-B” value in experiment [2] is recorded as “iA”.

As for `C[C@]1(C(=O)N[C@H](CO)Cc2ccccc2)Cc2c([nH]c3ccccc23)CN1C(=O)OC1C2CC3CC(C2)CC1C3` (stereo partly shown) [Example 5], the Ki in experiment [1] and in experiment [2] was 730 nM in each case.

With `C[C@@]1(C(=O)N[C@H](CO)Cc2ccccc2)Cc2c([nH]c3ccccc23)CN1C(=O)OC1C2CC3CC(C2)CC1C3` (stereo partly drawn) [Example 6, (S)-1,3,4,9-Tetrahydro-3-[[[1-(hydroxymethyl)-2-phenylethyl]amino]carbonyl]-3-methyl-2H-pyrido[3,4-b]indole-2-carboxylic acid,tricyclo[3.3.1.1^3,7]dec-2-yl ester ester], the Ki in experiment [1] and in experiment [2] was 1500 nM throughout.

As for `CC1(C(=O)N[C@@H](CO)[C@@H](O)c2ccccc2)Cc2c([nH]c3ccccc23)CN1C(=O)OC1C2CC3CC(C2)CC1C3` (stereo partly shown) [Example 7, 1,3,4,9-Tetrahydro-3-[[[1-(hydroxymethyl)-2-hydroxy-2-phenylethyl]amino]carbonyl]-3-methyl-2H-pyrido[3,4-b]-indole-2-carboxylic acid,tricyclo[3.3.1.1^3,7]dec-2-yl ester], the Ki in experiment [1] and in experiment [2] was 860 nM in each case.

In the case of `CC1(C(=O)NCC(NC(=O)CCC(=O)O)c2ccccc2)Cc2c([nH]c3ccccc23)CN1C(=O)OC1C2CC3CC(C2)CC1C3` (stereo not drawn) [Example 9, 3-[[[2-(3-Carboxy-1-oxopropyl)-amino]-2-phenylethyl]amino]carbonyl]-1,3,4,9-tetrahydro-3-methyl-2H-pyrido[3,4-b]indole-2-carboxylic acid, tricyclo[3.3.1.1^3,7]dec-2-yl ester, [R-(R*,R*)] and [R-(R*,S*)]-], the Ki in experiment [1] and in experiment [2] was 500 nM in each case.

Consider `CC1(C(=O)NCC(O)c2ccccc2)Cc2c([nH]c3ccccc23)CN1C(=O)OC1C2CC3CC(C2)CC1C3` (stereo not shown) [Example 12], for which the inhibition constant Ki in experiment [1] and in experiment [2] was 710 nM in each case.

On to `CC1(C(=O)NCC(OC(=O)CCC(=O)O)c2ccccc2)Cc2c([nH]c3ccccc23)CN1C(=O)OC1C2CC3CC(C2)CC1C3` (stereo not shown) [Example 13], for which the Ki in experiment [1] and in experiment [2] was 1000 nM throughout.

Take `CC(C)(C)OC(=O)N1Cc2[nH]c3ccccc3c2CC1C(=O)NC(Cc1ccccc1)C(=O)O` (stereo not shown) [Example 18, 3-[[1(I-Carboxy-2-phenethyl)amino]carbonyl]-1,3,4,9-tetrahydro-2H-pyrido[3,4-b]indole-2-carboxylic acid, 1,1-dimethylethyl ester]: the Ki in experiment [1] and in experiment [2] was 6000 nM each time.
